These results are taken from patent US11780826B2 (Amgen Inc., priority 2017, dated 2023).

The assay deals with Bovine cardiac myofibrils. As to the kind of experiment: In vitro model of dose-dependent myofibril ATPase modulation (AC1.4, pyruvate kinase/lactate dehydrogenase-coupled ATPase assay at pCa25). The assay is classed as biochemical. Conditions: concentration at which ATPase activity was 1.4-fold higher than the bottom of the dose curve, mean of a minimum of two independent tests. The gist of the method:
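Compound dilutions were premixed with myofibrils, coupling enzymes, EGTA and CaCl2, then the reaction was started with an equal volume carrying ATP (final 1 mM), NADH and PEP. ATP turnover was followed at 340 nm, and dose responses were fit to a four-parameter equation.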
On to `O=C(NCc1ccc(C(F)(F)F)cc1)[C@H]1CCCN1C(=O)[C@H]1CCCN(S(=O)(=O)N2CCC2c2cccc(Br)c2)C1` (stereo partly drawn) [Example 180, 1-(((3S)-1-((-2-(3-bromophenyl)-1-azetidinyl)sulfonyl)-3-piperidinyl)carbonyl)-N-(4-(trifluoromethyl)benzyl)-D-prolinamide], for which the AC1.4 was found to be 0.3256 µM.

As for `N#CC1CN(S(=O)(=O)N2CCO[C@H](C(=O)N3CCC[C@@H]3C(=O)NCc3ccc(Cl)cc3F)C2)C1` [Example 187, N-(4-chloro-2-fluorobenzyl)-1-(((2S)-4-((3-cyano-1-azetidinyl)sulfonyl)-2-morpholinyl)carbonyl)-D-prolinamide], the AC1.4 was 0.3409 µM.

For the compound `Cc1ccc(Cl)cc1CNC(=O)[C@H]1CCCN1C(=O)[C@H]1CCCN(S(=O)(=O)N2CC(C#N)C2)C1` [Example 618, N-(5-chloro-2-methylbenzyl)-1-(((3S)-1-((3-cyano-1-azetidinyl)sulfonyl)-3-piperidinyl)carbonyl)-D-prolinamide], the AC1.4 was determined as 3.9205 µM.

Compound `Cc1ccnc(C(=O)N2[C@@H](C(=O)N[C@@H](c3cc(F)c(C(F)(F)F)cc3F)C3CC3)C[C@H]3C[C@H]32)c1` [Example 658, (1R,3R,5R)-N-((R)-cyclopropyl(2,5-difluoro-4-(trifluoromethyl)phenyl)methyl)-2-((4-methyl-2-pyridinyl)carbonyl)-2-azabicyclo[3.1.0]hexane-3-carboxamide] registered an AC1.4 of 4.159 µM.

`Cc1ccnc(C(=O)N2[C@@H](C(=O)N[C@@H](c3cc(F)c(Cl)cc3F)C3COC3)C[C@H]3C[C@H]32)c1` [Example 600, (1R,3R,5R)-N-((R)-(4-chloro-2,5-difluorophenyl)(3-oxetanyl)methyl)-2-((4-methyl-2-pyridinyl)carbonyl)-2-azabicyclo[3.1.0]hexane-3-carboxamide]: the AC1.4 was determined as 3.6113 µM.

`N#CC1CN(S(=O)(=O)N2CCC[C@H](C(=O)N3CCC[C@@H]3C(=O)NCc3cccc(Cl)c3)C2)C1` [Example 438, N-(3-chlorobenzyl)-1-(((3S)-1-((3-cyano-1-azetidinyl)sulfonyl)-3-piperidinyl)carbonyl)-D-prolinamide]: the AC1.4 stood at 1.712 µM.

Regarding `CS(=O)(=O)c1cccc(C(=O)N2[C@@H](C(=O)N[C@@H](c3ccc(C(F)(F)F)c(F)c3)C3CC3)C[C@H]3C[C@H]32)c1` [Example 307, (1R,3R,5R)-N-((R)-cyclopropyl(3-fluoro-4-(trifluoromethyl)phenyl)methyl)-2-(3-(methylsulfonyl)benzoyl)-2-azabicyclo[3.1.0]hexane-3-carboxamide], the AC1.4 is 0.8008 µM.

Turning to `O=C(N[C@@H](c1cc(F)c(Cl)cc1F)C1CC1)[C@H]1C[C@H]2C[C@H]2N1C(=O)c1cccc(C(F)(F)F)c1` [Example 127, (1R,3R,5R)-N-((R)-(4-chloro-2,5-difluorophenyl)(cyclopropyl)methyl)-2-(3-(trifluoromethyl)benzoyl)-2-azabicyclo[3.1.0]hexane-3-carboxamide], the AC1.4 was 0.2088 µM.

Compound `O=C(NCc1ccc(C(F)(F)F)cc1)[C@H]1CCCN1C(=O)[C@H]1CCCN(S(=O)(=O)N2CC(O)(C(F)(F)F)C2)C1` [Example 467, 1-(((3S)-1-((3-hydroxy-3-(trifluoromethyl)-1-azetidinyl)sulfonyl)-3-piperidinyl)carbonyl)-N-(4-(trifluoromethyl)benzyl)-D-prolinamide] registered an AC1.4 of 1.9675 µM.

In the case of `N#CC1CN(S(=O)(=O)N2CCC[C@H](C(=O)N3CCC[C@@H]3C(=O)NC3CC(CO)c4ccccc43)C2)C1` (stereo partly drawn) [Example 276, (2R)-1-((S)-1-((3-cyanoazetidin-1-yl)sulfonyl)piperidine-3-carbonyl)-N-(3-(hydroxymethyl)-2,3-dihydro-1H-inden-1-yl)pyrrolidine-2-carboxamide], the AC1.4 was 0.7014 µM.

For the compound `O=C(NCc1ccc(C(F)(F)F)nc1)[C@H]1CCCCN1C(=O)c1cccc(S(=O)(=O)N2CC(F)(F)C2)c1` [Example 798, (2R)-1-((3-((3,3-difluoro-1-azetidinyl)sulfonyl)phenyl)carbonyl)-N-((6-(trifluoromethyl)-3-pyridinyl)methyl)-2-piperidinecarboxamide], the AC1.4 was 9.448 µM.

The compound `CC(O)(c1cccc(C(=O)N2CCCC[C@@H]2C(=O)N[C@@H](c2ccc(C(F)(F)F)cc2F)C2CC2)c1)C(F)(F)F` (stereo partly drawn) [Example 208, (2R)-N-((R)-cyclopropyl(2-fluoro-4-(trifluoromethyl)phenyl)methyl)-1-(3-(-1,1,1-trifluoro-2-hydroxy-2-propanyl)benzoyl)-2-piperidinecarboxamide] displayed an AC1.4 of 0.4457 µM.

`C[C@@H](NC(=O)[C@H]1C[C@H](F)CN1C(=O)[C@H]1CCCN(S(=O)(=O)N2CC(C#N)C2)C1)c1cccc(C(F)(F)F)c1` [Example 494, (2R,4S)-1-((S)-1-((3-cyanoazetidin-1-yl)sulfonyl)piperidine-3-carbonyl)-4-fluoro-N-((R)-1-(3-(trifluoromethyl)phenyl)ethyl)pyrrolidine-2-carboxamide] registered an AC1.4 of 2.274 µM.

`O=C(N[C@@H](c1cc(F)c(Cl)cc1F)C1COC1)[C@H]1C[C@@H](O)CN1C(=O)c1ccnc(C(F)(F)F)c1` [Example 399, (4R)-N-((R)-(4-chloro-2,5-difluorophenyl)(3-oxetanyl)methyl)-4-hydroxy-1-((2-(trifluoromethyl)-4-pyridinyl)carbonyl)-D-prolinamide] came in with an AC1.4 of 1.4045 µM.

As to `N#CC1CN(S(=O)(=O)c2cccc(C(=O)N3Cc4ccccc4C3C(=O)NCc3ccc(C(F)(F)F)cc3)c2)C1` (centres unmarked) [Example 93, 2-((3-((3-cyano-1-azetidinyl)sulfonyl)phenyl)carbonyl)-N-(4-(trifluoromethyl)benzyl)-2,3-dihydro-1H-isoindole-1-carboxamide], the AC1.4 amounted to 0.1413 µM.

The compound `O=C(NCc1ccc(C(F)(F)F)cc1)[C@H]1CC2(CC2)CN1C(=O)c1cccc(S(=O)(=O)N2CC3(CC3)C2)c1` [Example 312, (6R)-5-((3-(5-azaspiro[2.3]hex-5-ylsulfonyl)phenyl)carbonyl)-N-(4-(trifluoromethyl)benzyl)-5-azaspiro[2.4]heptane-6-carboxamide] had an AC1.4 of 0.841 µM.

Take `COC1CN(S(=O)(=O)N2CCC[C@H](C(=O)N3CCC[C@@H]3C(=O)NCc3ccc(C(F)(F)F)cc3)C2)C1` [Example 492, 1-(((3S)-1-((3-methoxy-1-azetidinyl)sulfonyl)-3-piperidinyl)carbonyl)-N-(4-(trifluoromethyl)benzyl)-D-prolinamide]: the AC1.4 was 2.256 µM.

Regarding `C[C@@H](NC(=O)[C@H]1CCCN1C(=O)[C@@H]1CN(S(=O)(=O)N2CC(C#N)C2)CCN1)c1ccc(Cl)cc1` [Example 511, N-((1R)-1-(4-chlorophenyl)ethyl)-1-(((2S)-4-((3-cyano-1-azetidinyl)sulfonyl)-2-piperazinyl)carbonyl)-D-prolinamide], the AC1.4 was found to be 2.4195 µM.

Consider `N#CC1CN(S(=O)(=O)N2CCC[C@H](C(=O)N3CCC[C@@H]3C(=O)N[C@@H](CO)c3ccc(Cl)cc3)C2)C1` [Example 733, N-((1R)-1-(4-chlorophenyl)-2-hydroxyethyl)-1-(((3S)-1-((3-cyano-1-azetidinyl)sulfonyl)-3-piperidinyl)carbonyl)-D-prolinamide], for which the AC1.4 was determined as 6.8025 µM.

The compound `CS(=O)(=O)c1ccc(F)c(C(=O)N2CCC[C@@H]2C(=O)N[C@@H](c2ccc(C(F)(F)F)cc2F)C2CC2)c1F` [Example 563, N-((R)-cyclopropyl(2-fluoro-4-(trifluoromethyl)phenyl)methyl)-1-(2,6-difluoro-3-(methylsulfonyl)benzoyl)-D-prolinamide] displayed an AC1.4 of 2.8195 µM.

For `CS(=O)(=O)c1cccc(C(=O)N2[C@@H](C(=O)N[C@@H](c3ccc(C(F)(F)F)cc3F)C3(F)COC3)C[C@H]3C[C@H]32)c1` [Example 676, (1R,3R,5R)-N-((S)-(3-fluoro-3-oxetanyl)(2-fluoro-4-(trifluoromethyl)phenyl)methyl)-2-(3-(methylsulfonyl)benzoyl)-2-azabicyclo[3.1.0]hexane-3-carboxamide], the AC1.4 is 4.59 µM.

The compound `N#CC1CN(S(=O)(=O)N2CCC[C@H](C(=O)N3CCC[C@@H]3C(=O)NCc3cc(F)cc(F)c3F)C2)C1` [Example 356, 1-(((3S)-1-((3-cyano-1-azetidinyl)sulfonyl)-3-piperidinyl)carbonyl)-N-(2,3,5-trifluorobenzyl)-D-prolinamide] showed an AC1.4 of 1.0535 µM.

`COc1cc(C(F)(F)F)ccc1[C@H](NC(=O)[C@H]1C[C@H]2C[C@H]2N1C(=O)c1cccc(S(C)(=O)=O)c1)C1CC1` [Example 309, (1R,3R,5R)-N-((R)-cyclopropyl(2-methoxy-4-(trifluoromethyl)phenyl)methyl)-2-(3-(methylsulfonyl)benzoyl)-2-] came in with an AC1.4 of 0.822 µM.

For `N#CC1CN(S(=O)(=O)c2cccc(C(=O)N3CCc4ccccc4C3C(=O)NCc3ccc(C(F)(F)F)cc3)c2)C1` (centres unmarked) [Example 324, 2-(3-((3-cyanoazetidin-1-yl)sulfonyl)benzoyl)-N-(4-(trifluoromethyl)benzyl)-1,2,3,4-tetrahydroisoquinoline-1-carboxamide], the AC1.4 was found to be 0.8782 µM.

Take `O=C(N[C@@H](c1cc(F)c(Cl)cc1F)C1CC1)[C@H]1C[C@H]2C[C@H]2N1C(=O)c1cccc(S(=O)(=O)C2CC2)c1` [Example 92, (1R,3R,5R)-N-((R)-(4-chloro-2,5-difluorophenyl)(cyclopropyl)methyl)-2-(3-(cyclopropylsulfonyl)benzoyl)-2-azabicyclo[3.1.0]hexane-3-carboxamide]: the AC1.4 is 0.1388 µM.

As to `Cc1cnn(C)c1C(=O)N1[C@@H](C(=O)N[C@@H](c2cc(F)c(C(F)(F)F)cc2F)C2COC2)C[C@H]2C[C@H]21` [Example 818, (1R,3R,5R)-N-((R)-(2,5-difluoro-4-(trifluoromethyl)phenyl)(oxetan-3-yl)methyl)-2-(1,4-dimethyl-1H-pyrazole-5-carbonyl)-2-azabicyclo[3.1.0]hexane-3-carboxamide], the AC1.4 is 4.155 µM.
